In ChEMBL document CHEMBL3272271, “Folate antagonists. 13. 2,4-Diamino-6-](alpha,alpha,alpha-trifluoro-m-tolyl)thio]quinazoline and related 2,4-diamino-6-[(phenyl- and naphthyl)thio]quinazolines, a unique class of antimetabolites with extraordinary antimalarial and antibacterial effects” (J Med Chem, 1978):
Converted amounts (≈) assume the structure as drawn. The source made the active and inactive calls. The rule behind the calls is not given here.

What was measured:
Plasmodium gallinaceum [1] = assay: Antimalarial activity against sporozoite-induced Plasmodium gallinaceum infected in white leghorn chicken assessed as increase in mean survival days of host at 120 mg/kg, sc administered 72 hrs after infection relative to control; format: functional; conditions: route subcutaneous
Enterococcus faecalis = assay: Antibacterial activity against Streptococcus faecalis MGH-2 by gradient plate test; format: functional
Plasmodium gallinaceum [2] = assay: Antimalarial activity against trophozoite-induced Plasmodium gallinaceum infected in white leghorn chicken assessed as increase in mean survival days of host at 2.5 mg/kg, sc administered 72 hrs after infection relative to control; format: functional; conditions: route subcutaneous
Plasmodium berghei [3] = assay: Antimalarial activity against Plasmodium berghei infected in mouse assessed as increase in mean survival days of host at 20 mg/kg, sc administered 72 hrs after infection relative to control; format: functional; conditions: route subcutaneous
Plasmodium berghei [4] = assay: Antimalarial activity against Plasmodium berghei infected in mouse assessed as increase in mean survival days of host at 40 mg/kg, sc administered 72 hrs after infection relative to control; format: functional; conditions: route subcutaneous
Plasmodium gallinaceum [5] = assay: Antimalarial activity against sporozoite-induced Plasmodium gallinaceum infected in white leghorn chicken assessed as disease cure from parasite infection at 480 mg/kg, sc administered 72 hrs after infection; format: functional, organism-based; design: dose 480 mg/kg
[6] = tested on: Mycobacterium tuberculosis; assay: Antibacterial activity against Mycobacterium tuberculosis H37Ra by gradient plate test; format: functional
Plasmodium berghei [7] = assay: Antimalarial activity against Plasmodium berghei infected in mouse assessed as increase in mean survival days of host at 5 mg/kg, sc administered 72 hrs after infection relative to control; format: functional; conditions: route subcutaneous
Plasmodium gallinaceum [8] = assay: Antimalarial activity against sporozoite-induced Plasmodium gallinaceum infected in white leghorn chicken assessed as disease cure from parasite infection at 120 mg/kg, sc administered 72 hrs after infection; format: functional, organism-based; design: dose 120 mg/kg
Shigella sonnei = assay: Antibacterial activity against Shigella sonnei C-10 by gradient plate test; format: functional
Plasmodium berghei [9] = assay: Antimalarial activity against Plasmodium berghei infected in mouse assessed as increase in mean survival days of host at 2.5 mg/kg, sc administered 72 hrs after infection relative to control; format: functional; conditions: route subcutaneous
Plasmodium gallinaceum [10] = assay: Antimalarial activity against trophozoite-induced Plasmodium gallinaceum infected in white leghorn chicken assessed as increase in mean survival days of host at 10 mg/kg, sc administered 72 hrs after infection relative to control; format: functional; conditions: route subcutaneous
Plasmodium gallinaceum [11] = assay: Antimalarial activity against sporozoite-induced Plasmodium gallinaceum infected in white leghorn chicken assessed as increase in mean survival days of host at 60 mg/kg, sc administered 72 hrs after infection relative to control; format: functional; conditions: route subcutaneous
Plasmodium berghei [12] = assay: Antimalarial activity against Plasmodium berghei infected in mouse assessed as disease cure from parasite infection at 640 mg/kg, sc administered 72 hrs after infection; format: functional, organism-based; design: dose 640 mg/kg
Escherichia coli = assay: Antibacterial activity against Escherichia coli Vogel by gradient plate test; format: functional
Plasmodium gallinaceum [13] = assay: Antimalarial activity against sporozoite-induced Plasmodium gallinaceum infected in white leghorn chicken assessed as disease cure from parasite infection at 60 mg/kg, sc administered 72 hrs after infection; format: functional, organism-based; design: dose 60 mg/kg
Plasmodium berghei [14] = assay: Antimalarial activity against Plasmodium berghei infected in mouse assessed as disease cure from parasite infection at 320 mg/kg, sc administered 72 hrs after infection; format: functional, organism-based; design: dose 320 mg/kg
Plasmodium gallinaceum [15] = assay: Antimalarial activity against sporozoite-induced Plasmodium gallinaceum infected in white leghorn chicken assessed as disease cure from parasite infection at 240 mg/kg, sc administered 72 hrs after infection; format: functional, organism-based; design: dose 240 mg/kg
Plasmodium gallinaceum [16] = assay: Antimalarial activity against sporozoite-induced Plasmodium gallinaceum infected in white leghorn chicken assessed as disease cure from parasite infection at 30 mg/kg, sc administered 72 hrs after infection; format: functional, organism-based; design: dose 30 mg/kg
Plasmodium berghei [17] = assay: Antimalarial activity against Plasmodium berghei infected in mouse assessed as disease cure from parasite infection at 40 mg/kg, sc administered 72 hrs after infection; format: functional, organism-based; design: dose 40 mg/kg
Plasmodium gallinaceum [18] = assay: Antimalarial activity against trophozoite-induced Plasmodium gallinaceum infected in white leghorn chicken assessed as increase in mean survival days of host at 0.63 mg/kg, sc administered 72 hrs after infection relative to control; format: functional; conditions: route subcutaneous
Plasmodium gallinaceum [19] = assay: Antimalarial activity against sporozoite-induced Plasmodium gallinaceum infected in white leghorn chicken assessed as increase in mean survival days of host at 15 mg/kg, sc administered 72 hrs after infection relative to control; format: functional; conditions: route subcutaneous
Plasmodium berghei [20] = assay: Antimalarial activity against Plasmodium berghei infected in mouse assessed as disease cure from parasite infection at 80 mg/kg, sc administered 72 hrs after infection; format: functional, organism-based; design: dose 80 mg/kg
Plasmodium gallinaceum [21] = assay: Antimalarial activity against trophozoite-induced Plasmodium gallinaceum infected in white leghorn chicken assessed as increase in mean survival days of host at 5 mg/kg, sc administered 72 hrs after infection relative to control; format: functional; conditions: route subcutaneous
Plasmodium berghei [22] = assay: Antimalarial activity against Plasmodium berghei infected in mouse assessed as increase in mean survival days of host at 1.25 mg/kg, sc administered 72 hrs after infection relative to control; format: functional; conditions: route subcutaneous
Plasmodium gallinaceum [23] = assay: Antimalarial activity against trophozoite-induced Plasmodium gallinaceum infected in white leghorn chicken assessed as increase in mean survival days of host at 20 mg/kg, sc administered 72 hrs after infection relative to control; format: functional; conditions: route subcutaneous
Staphylococcus aureus [24] = assay: Antibacterial activity against Staphylococcus aureus UC-96 by gradient plate test; format: functional
Plasmodium berghei [25] = assay: Antimalarial activity against Plasmodium berghei infected in mouse assessed as increase in mean survival days of host at 10 mg/kg, sc administered 72 hrs after infection relative to control; format: functional; conditions: route subcutaneous
Plasmodium gallinaceum [26] = assay: Antimalarial activity against sporozoite-induced Plasmodium gallinaceum infected in white leghorn chicken assessed as increase in mean survival days of host at 30 mg/kg, sc administered 72 hrs after infection relative to control; format: functional; conditions: route subcutaneous
Pseudomonas aeruginosa = assay: Antibacterial activity against Pseudomonas aeruginosa 28 by gradient plate test; format: functional
Plasmodium berghei [27] = assay: Antimalarial activity against Plasmodium berghei infected in mouse assessed as disease cure from parasite infection at 160 mg/kg, sc administered 72 hrs after infection; format: functional, organism-based; design: dose 160 mg/kg
Plasmodium gallinaceum [28] = assay: Antimalarial activity against trophozoite-induced Plasmodium gallinaceum infected in white leghorn chicken assessed as increase in mean survival days of host at 1.25 mg/kg, sc administered 72 hrs after infection relative to control; format: functional; conditions: route subcutaneous
Staphylococcus aureus [29] = assay: Antibacterial activity against drug-resistant Staphylococcus aureus S18713 by gradient plate test; format: functional

SMILES: Nc1nc(N)c2cc(Sc3cccc(-c4ccccc4)c3)ccc2n1
- MST (Plasmodium gallinaceum [1]): 0.3 days
- MIC (Enterococcus faecalis): < 0.25 µg/mL
- MST (Plasmodium gallinaceum [2]): 0 days
- MST (Plasmodium berghei [3]): 11.1 days
- MST (Plasmodium berghei [4]): 17.4 days
- Activity (Plasmodium gallinaceum [5]): Active
- MIC [6]: > 25 µg/mL
- MST (Plasmodium berghei [7]): 7.9 days
- Activity (Plasmodium gallinaceum [8]): Active
- MIC (Shigella sonnei): > 25 µg/mL
- MST (Plasmodium berghei [9]): 5.3 days
- MST (Plasmodium gallinaceum [10]): 0 days
- MST (Plasmodium gallinaceum [11]): 0.3 days
- Activity (Plasmodium berghei [12]): Active
- MIC (Escherichia coli): 10 µg/mL (≈ 29 µM)
- Activity (Plasmodium gallinaceum [13]): Active
- Activity (Plasmodium berghei [14]): Active
- Activity (Plasmodium gallinaceum [15]): Active
- Activity (Plasmodium gallinaceum [16]): Active
- Activity (Plasmodium berghei [17]): Active
- MST (Plasmodium gallinaceum [18]): 0 days
- MST (Plasmodium gallinaceum [19]): 0.7 days
- Activity (Plasmodium berghei [20]): Active
- MST (Plasmodium gallinaceum [21]): 0 days
- MST (Plasmodium berghei [22]): 4.5 days
- MST (Plasmodium gallinaceum [23]): 0 days
- MIC (Staphylococcus aureus [24]): < 0.25 µg/mL
- MST (Plasmodium berghei [25]): 8.1 days
- MST (Plasmodium gallinaceum [26]): 1 days
- MIC (Pseudomonas aeruginosa): > 25 µg/mL
- Activity (Plasmodium berghei [27]): Active
- MST (Plasmodium gallinaceum [28]): 0 days
- MIC (Staphylococcus aureus [29]): < 0.25 µg/mL
